Where a name gives a salt, the structure may show the parent alone.
Target: T1, iNOS in human cartilage explants (Homo sapiens, UniProt P35228)
T1 construct: from tissue; host or cells: human cartilage explants stimulated with recombinant human IL-1β
Assay: Human cartilage explant assay (IL-1β-induced nitrite production)
Assay type: cell-based
Conditions: inhibition of nitrite production, IL-1β-stimulated explants; averages across all experiments and all lots

IC50 [nM]	SMILES
700	CC(=N)NCCSCC(C)(N)C(=O)O (stereo not drawn) [Example 16, S-[2-(1-Iminoethylamino)ethyl]-2-methyl-(D/L)-cysteine, bistrifluoroacetate]
700	CC(=N)NCCSC[C@](C)(N)C(=O)O [Example 1, S-[2-[(1-Iminoethyl)amino]ethyl]-2-methyl-L-cysteine, dihydrochloride]

— patent publication US6914158B2, “Amidino compounds useful as nitric oxide synthase inhibitors” (Pharmacia Corporation, priority 2000, dated 2005)
